Earlier results on 13 compounds are cited in article PMC10928227, “Assessing biologic/toxicologic effects of extractables from plastic contact materials for advanced therapy manufacturing using cell painting assay and cytotoxicity screening” (Scientific Reports, 2024).

Where two headings read alike, the source gives them in different places.

The conditions of the data set: cited from earlier work; for Risk based on in vitro genotoxicity data from database (from QSAR-toolbox): not checked for in vivo relevance, ref QSAR Toolbox 4.5 database; for Gene mutation, Bacterial Reverse Mutation Assay (e.g. Ames Test): Salmonella typhimurium.
[1] abbreviates: in Vitro, Chinese hamster, Chinese Hamster Lung (CHL), Duration 24÷48 h, Database Genotoxicity OASIS, ref Sofuni, T., Ed. (1998). Data Book of Chromosomal Aberration Test In Vitro, Revised Edition.
Where [2] appears, read: Strain TA 100, in Vitro, Database: Bacterial mutagenicity ISSSTY, ref CCRIS database,Toxnet databases (Romualdo Benigni).
Where [3] appears, read: Strain TA 102, in Vitro, Database: Bacterial mutagenicity ISSSTY, ref CCRIS database,Toxnet databases (Romualdo Benigni).
Where [4] appears, read: in Vitro, No Strain Information, Database Genotoxicity OASIS, ref Journal of Medicinal Chemistry 48 (1), pp. 312-32, 25, Kazius J, McGuire R., Bursi R.
[5] abbreviates: in Vitro, Strain TA 97, Database Bacterial mutagenicity ISSSTY, ref CCRIS database,Toxnet databases, Romualdo Benigni, 02.5.2011.
The mark [6] stands for this setting: in Vitro, Strain TA 98, Database Bacterial mutagenicity ISSSTY, ref CCRIS database,Toxnet databases, Romualdo Benigni, 02.5.2011.
The mark [7] stands for this setting: in Vitro, Strain TA 1535, Database Bacterial mutagenicity ISSSTY, ref CCRIS database,Toxnet databases, Romualdo Benigni, 02.5.2011.
Where [8] appears, read: in Vitro, Strain TA 1537, Database Bacterial mutagenicity ISSSTY, ref CCRIS database,Toxnet databases, Romualdo Benigni, 02.5.2011.
The mark [9] stands for this setting: Strain TA 98, in Vitro, Database: Bacterial mutagenicity ISSSTY, ref CCRIS database,Toxnet databases (Romualdo Benigni).
Where [10] appears, read: Strain TA 1535, in Vitro, Database: Bacterial mutagenicity ISSSTY, ref CCRIS database,Toxnet databases (Romualdo Benigni).
[11] abbreviates: Strain TA 1537, in Vitro, Database: Bacterial mutagenicity ISSSTY, ref CCRIS database,Toxnet databases (Romualdo Benigni).
The mark [12] stands for this setting: in Vitro, Strain TA 97, Database Genotoxicity OASIS, ref P&G.
Where [13] appears, read: in Vitro, Strain TA 98, Database Genotoxicity OASIS, ref P&G.
Setting [14] is: in Vitro, Strain TA 100, Database Genotoxicity OASIS, ref P&G.
Setting [15] is: in Vitro, Strain TA 1535, Database Genotoxicity OASIS, ref P&G.
The mark [16] stands for this setting: in Vitro, Strain TA 1537, Database Genotoxicity OASIS, ref P&G.
[17] abbreviates: in Vitro, Strain TA 1538, Database Genotoxicity OASIS, ref P&G.
[18] abbreviates: Strain TA 97, in Vitro, Database: Bacterial mutagenicity ISSSTY, ref CCRIS database,Toxnet databases (Romualdo Benigni).
Setting [19] is: Strain TA 104, in Vitro, Database: Bacterial mutagenicity ISSSTY, ref CCRIS database,Toxnet databases (Romualdo Benigni).
Setting [20] is: in Vitro, Strain TA 102, OECD Guideline 471, Database Genotoxicity OASIS, ref CCRIS database,Toxnet databases.

As to `OCC(O)CO` [56-81-5], the “Chromosome aberration, in Vitro Mammalian Chromosome Aberration Test” value (shortened to “Chromosome aberration”) is recorded as “Negative” (in Vitro, Chinese hamster, Chinese Hamster Lung (CHL), Database Genotoxicity OASIS, ref ECHA, Registration dossier) and “Negative” under setting [1].
On to `Cc1cc(C(C)(C)C)c(O)c(C(C)(C)C)c1` [Butylated hydroxytoluene], for which the “Risk based on in vitro genotoxicity data from database (from QSAR-toolbox)” value (“Risk based on in vitro genotoxicity data” for short) is “Positive in vitro data”.
Regarding `O=C1CCCCCN1` [Caprolactam], the “Risk based on in vitro genotoxicity data” value was “Positive in vitro data”.
As to `S=c1[nH]c2ccccc2s1` [149-30-4], where the note is “in Vitro, No Strain Information, Database Genotoxicity OASIS, ref Mutation Research 584 (2005) 1-256, Kirkland et al.”, the “Chromosome aberration” value is recorded as “Positive”. In addition, where the note is “in Vitro, T-lymphoma Cell Lines, Database Genotoxicity OASIS, ref Mutation Research 584 (2005) 1-256, Kirkland et al.”, the “Gene mutation, Mammalian Cell Gene Mutation Assay” value is reported as “Positive”.
Turning to `CC(C)(c1ccc(O)cc1)c1ccc(O)cc1` [Bisphenol A], the “Risk based on in vitro genotoxicity data” value is recorded as “Positive in vitro data”.
With `CCCCCCCCCc1ccc(O)cc1` [104-40-5], the “Gene mutation, Bacterial Reverse Mutation Assay (e.g. Ames Test)” value (shortened to “Gene mutation … (e.g. Ames Test)”) reads like this: under setting [2], “Negative”; under setting [3], “Negative”; under setting [4], “Negative”; under setting [5], “Negative”; under setting [6], “Negative”; (in Vitro, Strain TA 100, Database Bacterial mutagenicity ISSSTY, ref CCRIS database,Toxnet databases, Romualdo Benigni, 02.5.2011) “Negative”. The “Gene mutation … (e.g. Ames Test)” value (in Vitro, Strain TA 102, Database Bacterial mutagenicity ISSSTY, ref CCRIS database,Toxnet databases, Romualdo Benigni, 02.5.2011) is reported as “Negative”; the “Gene mutation … (e.g. Ames Test)” value (in Vitro, Strain TA 104, Database Bacterial mutagenicity ISSSTY, ref CCRIS database,Toxnet databases, Romualdo Benigni, 02.5.2011) is reported as “Negative”; the “Gene mutation … (e.g. Ames Test)” value under setting [7] is “Negative”; the “Gene mutation … (e.g. Ames Test)” value under setting [8] is “Negative”; the “Gene mutation … (e.g. Ames Test)” value (in Vitro, Strain TA 1538, Database Bacterial mutagenicity ISSSTY, ref CCRIS database,Toxnet databases, Romualdo Benigni, 02.5.2011) is given as “Negative”.
Regarding `CCCCOC(=O)c1ccccc1C(=O)OCCCC` [84-74-2], the “Gene mutation … (e.g. Ames Test)” value is on record as “Negative” under setting [9]; “Negative” under setting [10]; “Negative” under setting [11]; “Negative” under setting [12]; “Negative” under setting [6]; “Negative” under setting [13]. Moreover, the “Gene mutation … (e.g. Ames Test)” value runs as follows: under setting [14], “Negative”; under setting [7], “Negative”; under setting [15], “Negative”; under setting [8], “Negative”; under setting [16], “Negative”; under setting [17], “Negative”. In addition, the “Chromosome aberration” value is “Negative” (in Vitro, Chinese hamster, Chinese Hamster Lung (CHL), Duration 6÷18 h, Database Genotoxicity OASIS, ref Sofuni, T., Ed. (1998). Data Book of Chromosomal Aberration Test In Vitro, Revised Edition) and “Negative” under setting [1].
As to `CC(C)(C)c1ccc(O)c(C(C)(C)C)c1` [2,4-Di-tert-butylphenol], the “Risk based on in vitro genotoxicity data” value is “Positive in vitro data”.
Turning to `CCC(C)=O` [78-93-3], the “Gene mutation … (e.g. Ames Test)” value is, setting by setting: under setting [18], “Negative”; under setting [9], “Negative”; under setting [2], “Negative”; under setting [3], “Negative”; under setting [19], “Negative”; under setting [10], “Negative”. The “Gene mutation … (e.g. Ames Test)” value by setting is: under setting [11], “Negative”; (Strain TA 1538, in Vitro, Database: Bacterial mutagenicity ISSSTY, ref CCRIS database,Toxnet databases (Romualdo Benigni)) “Negative”; under setting [4], “Negative”; under setting [12], “Negative”; under setting [13], “Negative”; under setting [14], “Negative”. Further, the “Gene mutation … (e.g. Ames Test)” value is, setting by setting: under setting [20], “Negative”; under setting [15], “Negative”; under setting [16], “Negative”; under setting [17], “Negative”.
As to `Oc1ccccc1` [Phenol], the “Risk based on in vitro genotoxicity data” value is on record as “Positive in vitro data”. In addition, the “Measured and predicted data (remark on genetic toxicity)” value (heading line of the measured and predicted data section, ref QSAR Toolbox database) is given as “suspected of causing genetic defects”.
With `CN1CCCC1=O` [872-50-4], the “Gene mutation … (e.g. Ames Test)” value reads like this: under setting [18], “Negative”; under setting [9], “Negative”; under setting [2], “Negative”; under setting [3], “Negative”; under setting [19], “Negative”; (Strain TA 2638, in Vitro, Database: Bacterial mutagenicity ISSSTY, ref CCRIS database,Toxnet databases (Romualdo Benigni)) “Negative”. For the same compound, the “Gene mutation … (e.g. Ames Test)” value is given as “Negative” under setting [4]; “Negative” under setting [12]; “Negative” under setting [13]; “Negative” under setting [14]; “Negative” under setting [20]; “Negative” under setting [15]. Also, the “Gene mutation … (e.g. Ames Test)” value is recorded as “Negative” under setting [16] and “Negative” under setting [17].
Consider `CC(=O)c1ccccc1` [98-86-2], for which the “Gene mutation … (e.g. Ames Test)” value under setting [18] was “Negative”; the “Gene mutation … (e.g. Ames Test)” value under setting [9] is “Negative”; the “Gene mutation … (e.g. Ames Test)” value under setting [2] is reported as “Negative”; the “Gene mutation … (e.g. Ames Test)” value under setting [3] was “Negative”; the “Gene mutation … (e.g. Ames Test)” value under setting [10] is listed as “Negative”; the “Gene mutation … (e.g. Ames Test)” value under setting [11] is on record as “Negative”. Also, the “Gene mutation … (e.g. Ames Test)” value is “Negative” under setting [4]; “Negative” under setting [5]; “Negative” (in Vitro, Strain TA 97, Database Genotoxicity OASIS, ref FUJITA H. AND SASAKI M., KENKYU NENPO - TOKYO-TORITSU EISEI KENKYUSHO 38:423-430, 1987); “Negative” under setting [6]; “Negative” (in Vitro, Strain TA 102, Database Genotoxicity OASIS, ref FUJITA H. AND SASAKI M., KENKYU NENPO - TOKYO-TORITSU EISEI KENKYUSHO 38:423-430, 1987).
Regarding `CCCCCCCC(=O)O` [124-07-2], for the setting “in Vitro, Chinese hamster, Chinese Hamster Lung Cells, Guidelines For Screening Mutagenicity Testing of Chemicals (Chemical Substances Control Law of Japan), Database Toxicity Japan MHLW, ref Japan Ministry of Health Labour and Welfare, http://dra4.nihs.go.jp/mhlw_data/jsp/SearchPageENG.jsp”, the “Chromosome aberration” value is reported as “Negative”.
